Laboratory results: PubChem BioAssay (NCI)
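GI50 is the concentration that inhibits growth by half. TGI: concentration producing complete growth inhibition.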

Tests used:
Experiment in all cases: growth of human tumour cells (NCI), 384-well format
[1] = tested on: NCI-H522 lung
[2] = tested on: SNB-75 CNS
[3] = tested on: HCT-15 colon
[4] = tested on: BT-549 breast
[5] = tested on: COLO 205 colon
[6] = tested on: CCRF-CEM leukemia
[7] = tested on: TK-10 renal
[8] = tested on: T-47D breast
[9] = tested on: SNB-19 CNS
[10] = tested on: NCI-H226 lung
[11] = tested on: PC-3 prostate
[12] = tested on: K-562 leukemia
[13] = tested on: OVCAR-3 ovarian

Compound: Cc1ccc2c(Nc3cccc(Cl)c3F)ncc(NC(=O)c3csc4c(N)ncnc34)c2c1
- GI50 [1]: 13.1 µM
- TGI [1]: 59 µM
- GI50 [2]: 33.6 µM
- TGI [2]: > 100 µM
- GI50 [3]: 26.3 µM
- TGI [3]: > 100 µM
- GI50 [4]: 22.8 µM
- TGI [4]: > 100 µM
- GI50 [5]: 0.0242 µM
- TGI [5]: 19.3 µM
- GI50 [6]: 15 µM
- TGI [6]: 34.5 µM
- GI50 [7]: 8.61 µM
- TGI [7]: 75.8 µM
- GI50 [8]: 19.5 µM
- TGI [8]: > 100 µM
- GI50 [9]: 55 µM
- TGI [9]: > 100 µM
- GI50 [10]: 0.978 µM
- TGI [10]: > 100 µM
- GI50 [11]: 57.3 µM
- TGI [11]: > 100 µM
- GI50 [12]: 0.592 µM
- TGI [12]: > 100 µM
- GI50 [13]: 22.2 µM
- TGI [13]: 84.7 µM
